For 24 compounds, IC50 results are on record in patent US12011444B2, “N-substituted indole derivatives as PGE2 receptor modulators” (Idorsia Pharmaceuticals Ltd, priority 2015, dated 2024).

The IC50 is the concentration needed to halve the response being measured. Read a high IC50 as weaker potency in that assay.

Molecules are shown by their SMILES.

Test [1] deals with PTGER2 (EP2) (Homo sapiens (Human), UniProt P43116). The test can be described thus: hEP2 b-arrestin assay (PathHunter HEK 293 PTGER2 b-arrestin cells). The class given is cell-based. An excerpt: (§1) The assay is using the PathHunter™ HEK 293 PTGER2 and PTGER4 b-arrestin cell lines from DiscoverX. The system is based on the Enzyme Fragment Complementation Technology. Two complementing fragments of the b-galactosidase enzyme are expressed within stably transfected cells. The larger portion of b-gal, termed EA for Enzyme Acceptor, is fused to the C-terminus of b-arrestin 2. The smaller fragment, termed ProLink™ tag, is fused to PTGER2 (EP2) or PTRGER4 (EP4) at the C-terminus. Upon activation, b-arrestin is recruited which forces the interaction of ProLink and EA, allowing complementation of the two fragments of b-gal and the formation of a functional enzyme which is capable of hydrolysing the substrate and generating a chemiluminescent signal.
Chain of PTGER2 (EP2) (P43116 whole entry, the tested form may be a part): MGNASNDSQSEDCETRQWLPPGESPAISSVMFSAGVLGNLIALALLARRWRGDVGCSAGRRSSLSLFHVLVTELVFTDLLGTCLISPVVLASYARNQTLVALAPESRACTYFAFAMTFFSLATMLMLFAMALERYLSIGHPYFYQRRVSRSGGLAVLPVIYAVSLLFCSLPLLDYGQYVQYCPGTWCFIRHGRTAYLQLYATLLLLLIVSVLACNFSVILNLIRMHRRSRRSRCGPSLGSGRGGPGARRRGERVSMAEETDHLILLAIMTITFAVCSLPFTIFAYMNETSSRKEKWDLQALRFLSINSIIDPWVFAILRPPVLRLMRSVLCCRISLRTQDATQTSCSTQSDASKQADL
(§2) 5000 cells per well of a 384 well plate (white with white bottom Greiner 781080) are seeded in 20 ul per well of GM. Plate is incubated at 37° C., 5% C02 for 24 hours.
Plate is pre-incubated 15 minutes at 37° C. Then five microliters of PGE2 (final conc. 5 μM) are transferred into the assay plate. Plate is incubated 120 minutes at 37° C.
Twelve μl of reagent are transferred to the assay plate and incubate for 1 hour at room temperature in the dark. Luminescence counts are read on a BMG Fluostar Optima reader according to manufacturer's instructions. For each compound concentration calculate of the percentage of activity compared to DMSO control value as average±STDEV. (each concentration is measured in duplicate)

For test [2], the target named is PTRGER4 (EP4) (Homo sapiens (Human), UniProt P35408). Briefly: hEP4 b-arrestin assay (PathHunter HEK 293 PTGER4 b-arrestin cells). It counts as cell-based.
Chain of PTRGER4 (EP4) (P35408 whole entry, looked up): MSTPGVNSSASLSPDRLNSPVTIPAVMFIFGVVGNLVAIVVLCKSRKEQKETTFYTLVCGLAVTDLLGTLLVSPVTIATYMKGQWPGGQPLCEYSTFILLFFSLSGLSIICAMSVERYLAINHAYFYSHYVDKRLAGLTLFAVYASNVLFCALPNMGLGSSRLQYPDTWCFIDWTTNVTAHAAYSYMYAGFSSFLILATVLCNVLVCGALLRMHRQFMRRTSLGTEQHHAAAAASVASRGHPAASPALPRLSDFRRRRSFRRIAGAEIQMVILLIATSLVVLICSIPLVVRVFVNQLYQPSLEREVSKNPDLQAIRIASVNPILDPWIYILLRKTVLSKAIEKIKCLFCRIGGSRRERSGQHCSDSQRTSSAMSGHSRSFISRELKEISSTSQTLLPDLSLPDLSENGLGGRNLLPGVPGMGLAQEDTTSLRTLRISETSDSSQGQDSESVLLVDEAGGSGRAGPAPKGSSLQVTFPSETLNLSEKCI
From the text: as §1, §2
Plate is pre-incubated 15 minutes at 37° C. Then five microliters of PGE2 (final conc. 20 nM) are transferred into the assay plate. Plate is incubated 120 minutes at 37° C.
Twelve μl of reagent are transferred to the assay plate and incubate for 1 hour at room temperature in the dark. Luminescence counts are read on a BMG Fluostar Optima reader according to manufacturer's instructions. For each compound concentration calculate of the percentage of activity compared to DMSO control value as average±STDEV.

The mark [3] stands for this setting: antagonistic activity on hEP2, mean where measured multiple times.
[4] abbreviates: antagonistic activity on hEP4, mean where measured multiple times.
Where [5] appears, read: hEP2 b-arrestin assay (values without asterisk).
Where [6] appears, read: hEP4 b-arrestin assay (values without asterisk).

Consider `COc1cc(-c2cc(NCCn3c(C)cc4c(C)ccc(F)c43)ncn2)ccc1CO` [compound 30, (4-{6-[2-(7-Fluoro-2,4-dimethyl-indol-1-yl)-ethylamino]-pyrimidin-4-yl}-2-methoxy-phenyl)-methanol], for which the IC50 in test [1] (setting [3]) is 34 nM; in test [2] (setting [4]) it was 243 nM.

Regarding `CCOc1cc(-c2cc(NCCn3c(C)cc4c(C)ccc(Cl)c43)ncn2)ccc1C(=O)O` [compound 157, 4-{6-[2-(7-Chloro-2,4-dimethyl-indol-1-yl)-ethylamino]-pyrimidin-4-yl}-2-ethoxy-benzoic acid], the half-maximal inhibitory concentration (IC50) in test [1] (setting [3]) was found to be 27 nM; in test [2] (setting [4]), 590 nM.

On to `CCOc1cc(-c2cc(NCCn3c(C)cc4c(OC)ccc(F)c43)ncn2)sc1CCC(=O)O` [Example 1015, 3-(3-Ethoxy-5-{6-[2-(7-fluoro-4-methoxy-2-methyl-indol-1-yl)-ethylamino]-pyrimidin-4-yl}-thiophen-2-yl)-propionic acid], for which the IC50 in test [1] (setting [5]) worked out at 15 nM; in test [2] (setting [6]) it was 18 nM.

Take `CCOc1cc(-c2cc(NCCn3c(C#N)cc4c(OC)ccc(F)c43)ncn2)ccc1OCC(=O)O` [Example 808, (4-{6-[2-(2-Cyano-7-fluoro-4-methoxy-indol-1-yl)-ethylamino]-pyrimidin-4-yl}-2-ethoxy-phenoxy)-acetic acid]: the 50% inhibitory concentration (IC50) is 7 nM in test [1] (setting [5]) and 4 nM in test [2] (setting [6]).

Turning to `Cc1ccc(F)c2c1cc(C)n2CCNc1cc(-c2ccc(-c3ncno3)cc2)ncn1` [compound 79, [2-(7-Fluoro-2,4-dimethyl-indol-1-yl)-ethyl]-[6-(4-[1,2,4]oxadiazol-5-yl-phenyl)-pyrimidin-4-yl]-amine], the half-inhibitory concentration (IC50) in test [1] (setting [3]) is 11 nM; in test [2] (setting [4]), 197 nM.

For `CCOc1cc(-c2cc(NCCn3c(C)cc4c(OC)ccc(F)c43)ncn2)ccc1CO` [compound 159, (2-Ethoxy-4-{6-[2-(7-fluoro-4-methoxy-2-methyl-indol-1-yl)-ethylamino]-pyrimidin-4-yl}-phenyl)-methanol], the IC50 in test [1] (setting [3]) was 4 nM; in test [2] (setting [4]), 75 nM.

For `CCOc1cc(-c2cc(NCCn3c(C#N)cc4c(OC)ccc(F)c43)ncn2)sc1C(=O)NS(=O)(=O)CC` [Example 817, Ethanesulfonic acid (5-{6-[2-(2-cyano-7-fluoro-4-methoxy-indol-1-yl)-ethylamino]-pyrimidin-4-yl}-3-ethoxy-thiophene-2-carbonyl)-amide], the IC50 in test [1] (setting [5]) was found to be 4 nM; in test [2] (setting [6]), 5 nM.

Regarding `Cc1ccc(F)c2c1cc(C)n2CCNc1cc(-c2ccc(S(=O)(=O)O)cc2)ncn1` [compound 37, 4-{6-[2-(7-Fluoro-2,4-dimethyl-indol-1-yl)-ethylamino]-pyrimidin-4-yl}-benzenesulfonic acid], the figures for the IC50 in test [1] (setting [3]) and in test [2] (setting [4]) were 34 nM and 436 nM, respectively.

Turning to `CCc1cccc2c1cc(C)n2CCNc1cc(-c2ccc(C(=O)O)c(CC(C)C)c2)ncn1` [compound 327], the IC50 in test [1] (setting [3]) is 482 nM; in test [2] (setting [4]), 629 nM.

As to `CCNc1cc(-c2cc(NCCn3c(C)cc4c(C)ccc(F)c43)ncn2)cc(Cl)c1C(=O)O` [compound 353, 2-Chloro-6-ethylamino-4-{6-[2-(7-fluoro-2,4-dimethyl-indol-1-yl)-ethylamino]-pyrimidin-4-yl}-benzoic acid], the IC50 in test [1] (setting [3]) was 13 nM; in test [2] (setting [4]), 213 nM.

`CCNc1cc(-c2cc(NCCn3c(C)cc4c(OC)ccc(F)c43)ncn2)cc(Cl)c1C(=O)O` [compound 381, 2-Chloro-6-ethylamino-4-{6-[2-(7-fluoro-4-methoxy-2-methyl-indol-1-yl)-ethylamino]-pyrimidin-4-yl}-benzoic acid]: the IC50 in test [1] (setting [3]) was 3 nM; in test [2] (setting [4]), 84 nM.

Turning to `CCNc1cc(-c2cc(NCCn3c(C)cc4c(Cl)cccc43)ncn2)ccc1C(=O)O` [compound 212], the IC50 was determined as 1 nM in test [1] (setting [3]) and 173 nM in test [2] (setting [4]).

For the compound `CCc1cc(-c2cc(NCCn3c(C)cc4c(OC)cccc43)ncn2)sc1C(=O)O` [compound 110], the figures for the half-inhibitory concentration (IC50) in test [1] (setting [3]) and in test [2] (setting [4]) were 3 nM and 46 nM, respectively.

For the compound `COc1ccc(F)c2c1cc(C)n2CCNc1cc(-c2cc(C(F)(F)F)c(-c3nn[nH]n3)s2)ncn1` [Example 1060, [2-(7-Fluoro-4-methoxy-2-methyl-indol-1-yl)-ethyl]-{6-[5-(2H-tetrazol-5-yl)-4-trifluoromethyl-thiophen-2-yl]-pyrimidin-4-yl}-amine], the 50% inhibitory concentration (IC50) stood at 17 nM in test [1] (setting [5]) and 36 nM in test [2] (setting [6]).

Turning to `CCc1cc(-c2cc(NCCn3c(C)cc4c(C)cc(F)cc43)ncn2)cc(Cl)c1C(=O)O` [compound 264], the IC50 in test [1] (setting [3]) was 71 nM; in test [2] (setting [4]) it was 287 nM.

`CCSc1cc(C(=O)O)cc(-c2cc(NCCn3c(C#N)cc4c(OC)ccc(F)c43)ncn2)c1` [Example 922, 3-{6-[2-(2-Cyano-7-fluoro-4-methoxy-indol-1-yl)-ethylamino]-pyrimidin-4-yl}-5-ethylsulfanyl-benzoic acid]: the 50% inhibitory concentration (IC50) in test [1] (setting [5]) and in test [2] (setting [6]) was 19 nM throughout.

For the compound `Cc1cc(F)cc2c1cc(C)n2CCNc1cc(-c2ccc(-c3noc(=O)[nH]3)cc2)ncn1` [compound 182], the figures for the IC50 in test [1] (setting [3]) and in test [2] (setting [4]) were 56 nM and 141 nM, respectively.

Regarding `COc1ccc(F)c2c1cc(C#N)n2CCNc1cc(-c2ccc(-c3cn(C)c(C)n3)cc2)ncn1` [Example 824, 1-(2-{6-[4-(1,2-Dimethyl-1H-imidazol-4-yl)-phenyl]-pyrimidin-4-ylamino}-ethyl)-7-fluoro-4-methoxy-1H-indole-2-carbonitrile], the IC50 in test [1] (setting [5]) was 8 nM; in test [2] (setting [6]), 7 nM.

Take `CCCSc1cc(-c2cc(NCCn3c(C#N)cc4c(OC)cc(F)cc43)ncn2)ccc1C(=O)O` [Example 936, 4-{6-[2-(2-Cyano-6-fluoro-4-methoxy-indol-1-yl)-ethylamino]-pyrimidin-4-yl}-2-propylsulfanyl-benzoic acid]: the IC50 in test [1] (setting [5]) worked out at 18 nM; in test [2] (setting [6]) it was 8 nM.

With `CCc1cc(-c2cc(NCCn3c(C)cc4c(C)ccc(F)c43)ncn2)cc(F)c1C(=O)O` [compound 265], the 50% inhibitory concentration (IC50) in test [1] (setting [3]) worked out at 33 nM; in test [2] (setting [4]), 491 nM.

With `CCCc1cc(-c2cc(NCCn3c(C)cc4cc(Cl)cc(F)c43)ncn2)ccc1C(=O)O` [compound 263], the results for the IC50 in test [1] (setting [3]) and in test [2] (setting [4]) were 90 nM and 587 nM, respectively.

Turning to `N#Cc1c(F)c2ccccc2n1CCNc1cc(-c2cc(F)c(C(=O)O)s2)ncn1` [Example 846, 5-{6-[2-(2-Cyano-3-fluoro-indol-1-yl)-ethylamino]-pyrimidin-4-yl}-3-fluoro-thiophene-2-carboxylic acid], the IC50 in test [1] (setting [5]) turned out to be 24 nM; in test [2] (setting [6]), 221 nM.

For `CCOC(=O)Cc1ccc(-c2cc(NCCn3c(C)cc4c(OC)ccc(F)c43)ncn2)cc1` [Example 897, (4-{6-[2-(7-Fluoro-4-methoxy-2-methyl-indol-1-yl)-ethylamino]-pyrimidin-4-yl}-phenyl)-acetic acid ethyl ester], the IC50 in test [1] (setting [5]) is 380 nM; in test [2] (setting [6]), 453 nM.

On to `COc1ccc(F)c2c1cc(C)n2CCNc1cc(-c2ccc(-n3ccc(C)n3)cc2)ncn1` [compound 310, [2-(7-Fluoro-4-methoxy-2-methyl-indol-1-yl)-ethyl]-{6-[4-(3-methyl-pyrazol-1-yl)-phenyl]-pyrimidin-4-yl}-amine], for which the 50% inhibitory concentration (IC50) is 39 nM in test [1] (setting [3]) and 415 nM in test [2] (setting [4]).
